Assay results taken from patent publication US8202865B2, “Oxadiazole derivatives” (Merck Serono SA, priority 2007, dated 2012).
Structures can show the parent of a compound that is named as a salt.

target: T1, S1P1 (Homo sapiens, UniProt P21453); assay: 35S-GTPγS binding, S1P1 membranes; type: biochemical; settings: membranes from CHO cells expressing S1P1; 60 min 30° C.
T1 construct: expressed in transfected cells; host or cells: CHO cells (membranes)
Method in brief: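 CHO-cell membranes expressing S1P1 or S1P3 (1-10 μg) incubated with compounds in 20 mM HEPES pH 7.4, 10 mM MgCl2, 140 mM NaCl, saponin, 0.2% BSA, 1.7 μM GDP and [35S]-GTPγS (20 μl of 1.5 nM added), 60 min at 30° C. Bound radioactivity expressed as % of S1P activation.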

T1 sequence (P21453 whole entry, species assumed): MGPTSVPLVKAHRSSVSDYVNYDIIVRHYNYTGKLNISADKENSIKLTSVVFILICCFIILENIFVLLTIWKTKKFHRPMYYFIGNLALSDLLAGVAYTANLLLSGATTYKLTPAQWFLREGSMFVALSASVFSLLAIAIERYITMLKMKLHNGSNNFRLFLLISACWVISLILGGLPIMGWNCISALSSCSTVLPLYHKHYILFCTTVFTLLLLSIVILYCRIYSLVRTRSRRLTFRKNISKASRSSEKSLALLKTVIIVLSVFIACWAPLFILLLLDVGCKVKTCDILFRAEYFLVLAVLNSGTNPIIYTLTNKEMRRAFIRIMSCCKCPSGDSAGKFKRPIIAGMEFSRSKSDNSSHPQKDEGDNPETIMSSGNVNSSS

| SMILES | EC50 |
| --- | --- |
| COCc1cc(-c2nc(-c3ccc(C(=O)N(C)CC(=O)O)c(F)c3)no2)ccc1-c1ccccc1C [Example 125, N-(2-fluoro-4-{5-[2-(methoxymethyl)-2′-methylbiphenyl-4-yl]-1,2,4-oxadiazol-3-yl}benzoyl)-N-methylglycine] | 86 nM |
| Cc1cc(-c2nc(-c3ccc(C(=O)O)c(F)c3)no2)ccc1-c1ccccc1 [Example 6, 2-fluoro-4-[5-(2-methylbiphenyl-4-yl)-1,2,4-oxadiazol-3-yl]benzoic acid] | 2920 nM |
| COCc1cc(-c2nc(-c3cccc(CCOCC(=O)O)c3)no2)ccc1-c1ccccc1C [Example 161, [2-(3-{5-[2-(methoxymethyl)-2′-methylbiphenyl-4-yl]-1,2,4-oxadiazol-3-yl}phenyl)ethoxy]acetic acid] | 2.1 nM |
| COCc1cc(-c2nc(-c3ccc(C(=O)OC)c(F)c3)no2)ccc1OC(C)C [Example 110, methyl 2-fluoro-4-{5-[4-isopropoxy-3-(methoxymethyl)phenyl]-1,2,4-oxadiazol-3-yl}benzoate] | 240 nM |
| Cc1ccccc1-c1ccc(-c2nc(-c3ccc(C(=O)O)c(F)c3)no2)cc1COCC1CC1 [Example 61, 4-(5-{2-[(cyclopropylmethoxy)methyl]-2′-methylbiphenyl-4-yl}-1,2,4-oxadiazol-3-yl)-2-fluorobenzoic acid] | 2240 nM |
| COCc1cc(-c2nc(-c3cccc(C(N)=O)c3)no2)ccc1-c1ccccc1C [Example 182, 3-{5-[2-(methoxymethyl)-2′-methylbiphenyl-4-yl]-1,2,4-oxadiazol-3-yl}benzamide] | 11 nM |
| Cc1cc(-c2nc(-c3ccc(C(=O)O)c(F)c3)no2)ccc1-c1ccccc1C(F)(F)F [Example 8, 2-fluoro-4-{5-[2-methyl-2′-(trifluoromethyl)biphenyl-4-yl]-1,2,4-oxadiazol-3-yl}benzoic acid] | 850 nM |
| COCc1cc(-c2nc(-c3cccc(CN(CC(=O)OC(C)(C)C)C(=O)OC(C)(C)C)c3)no2)ccc1-c1ccccc1C [Example 149, Tert-butyl N-(tert-butoxycarbonyl)-N-(3-{5-[2-(methoxymethyl)-2′-methylbiphenyl-4-yl]-1,2,4-oxadiazol-3-yl}benzyl)glycinate] | 1240 nM |
| COCc1cc(-c2nc(-c3cccc(CNCCC(=O)OC(C)(C)C)c3)no2)ccc1-c1ccccc1C [Example 153, tert-butyl N-(3-{5-[2-(methoxymethyl)-2′-methylbiphenyl-4-yl]-1,2,4-oxadiazol-3-yl}benzyl)-beta-alaninate] | 25.2 nM |
| COCc1cc(-c2nc(-c3cc(C(=O)O)ccc3OC)no2)ccc1-c1ccccc1C [Example 107, 4-methoxy-3-{5-[2-(methoxymethyl)-2′-methylbiphenyl-4-yl]-1,2,4-oxadiazol-3-yl}benzoic acid] | 133 nM |
| COCc1cc(-c2nc(-c3ccc(OCC(=O)O)c(F)c3)no2)ccc1N1CCCCC1C (stereo not drawn) [Example 169, (2-fluoro-4-{5-[3-(methoxymethyl)-4-(2-methylpiperidin-1-yl)phenyl]-1,2,4-oxadiazol-3-yl}phenoxy)acetic acid, hydrochloride salt] | 5.2 nM |
| COCc1cc(-c2nc(-c3cccc(COCC(=O)O)c3)no2)ccc1-c1ccccc1C [Example 160, [(3-{5-[2-(methoxymethyl)-2′-methylbiphenyl-4-yl]-1,2,4-oxadiazol-3-yl}benzyl)oxy]acetic acid] | 0.6 nM |
| O=C(O)COc1ccc(-c2noc(-c3cnc(OCC4CC4)c(Cl)c3)n2)cc1F [Example 52, (4-{5-[5-chloro-6-(cyclopropylmethoxy)pyridin-3-yl]-1,2,4-oxadiazol-3-yl}-2-fluorophenoxy)acetic acid] | 1540 nM |
| COCCOCc1cccc(-c2noc(-c3ccc(-c4ccccc4C)c(COC)c3)n2)c1 [Example 192] | 6.1 nM |
| COCc1cc(-c2nc(-c3cccc(CNCCC(=O)OC)c3)no2)ccc1-c1ccccc1C [Example 145, Methyl N-(3-{5-[2-(methoxymethyl)-2′-methylbiphenyl-4-yl]-1,2,4-oxadiazol-3-yl}benzyl)-beta-alaninate] | 2.3 nM |
| COCc1cc(-c2nc(-c3ccc(C(=O)N4CC(F)(F)C4)c(F)c3)no2)ccc1-c1ccccc1C [Example 175, 3-{4-[(3,3-difluoroazetidin-1-yl)carbonyl]-3-fluorophenyl}-5-[2-(methoxymethyl)-2′-methylbiphenyl-4-yl]-1,2,4-oxadiazole] | 128 nM |
| CCOC(=O)C1(NCc2cccc(-c3noc(-c4ccc(-c5ccccc5C)c(COC)c4)n3)c2)CC1 [Example 140, Ethyl 1-[(3-{5-[2-(methoxymethyl)-2′-methylbiphenyl-4-yl]-1,2,4-oxadiazol-3-yl}benzyl)amino]cyclopropanecarboxylate] | 142 nM |
| COCCNC(=O)c1ccc(-c2noc(-c3ccc(-c4ccccc4C)c(COC)c3)n2)cc1F [Example 172, 2-fluoro-N-(2-methoxyethyl)-4-{5-[2-(methoxymethyl)-2′-methylbiphenyl-4-yl]-1,2,4-oxadiazol-3-yl}benzamide] | 33 nM |
| Cc1ccccc1-c1ccc(-c2nc(-c3ccc(C(=O)O)c(F)c3)no2)cc1CN1CCCC1 [Example 76, 2-fluoro-4-{5-[2′-methyl-2-(pyrrolidin-1-ylmethyl)biphenyl-4-yl]-1,2,4-oxadiazol-3-yl}benzoic acid, Hydrochloride salt] | 772 nM |
| COCc1cc(-c2nc(-c3ccc(F)c(CN(C)CCC(=O)O)c3)no2)ccc1OC(C)C [Example 157, N-(2-fluoro-5-{5-[4-isopropoxy-3-(methoxymethyl)phenyl]-1,2,4-oxadiazol-3-yl}benzyl)-N-methyl-beta-alanine, Hydrochloride salt] | 4 nM |
| CCOc1ccccc1-c1ccc(-c2nc(-c3ccc(C(=O)O)c(F)c3)no2)cc1COC [Example 90, 4-{5-[2′-ethoxy-2-(methoxymethyl)biphenyl-4-yl]-1,2,4-oxadiazol-3-yl}-2-fluorobenzoic acid] | 479 nM |
| CCOC(=O)CC(C)NC(=O)c1ccc(-c2noc(-c3ccc(-c4ccccc4C)c(COC)c3)n2)cc1F (stereo not drawn) [Example 121, Ethyl 3-[(2-fluoro-4-{5-[2-(methoxymethyl)-2′-methylbiphenyl-4-yl]-1,2,4-oxadiazol-3-yl}benzoyl)amino]butanoate] | 281 nM |

More lines, in order of falling EC50, values ahead:

| EC50 | SMILES |
| --- | --- |
| 7700 nM | Cc1ccccc1-c1ccc(-c2nc(-c3ccc(C(=O)O)c(F)c3)no2)cc1O [Example 99, 2-fluoro-4-[5-(2-hydroxy-2′-methylbiphenyl-4-yl)-1,2,4-oxadiazol-3-yl]benzoic acid] |
| 7000 nM | Cc1cc(-c2nc(-c3ccc(C(=O)O)c(F)c3)no2)ccc1N1CCOCC1 [Example 18, 2-fluoro-4-[5-(3-methyl-4-morpholin-4-ylphenyl)-1,2,4-oxadiazol-3-yl]benzoic acid] |
| 2270 nM | COc1cc(-c2noc(-c3ccc(-c4ccccc4C)c(C)c3)n2)ccc1C(=O)O [Example 46, 4-[5-(2,2′-dimethylbiphenyl-4-yl)-1,2,4-oxadiazol-3-yl]-2-methoxybenzoic acid] |
| 2010 nM | COCc1ccccc1-c1ccc(-c2nc(-c3ccc(C(=O)O)c(F)c3)no2)cc1C [Example 87, 2-fluoro-4-{5-[2′-(methoxymethyl)-2-methylbiphenyl-4-yl]-1,2,4-oxadiazol-3-yl}benzoic acid] |
| 610 nM | COCc1cc(-c2nc(-c3ccc(C(=O)O)c(F)c3)no2)ccc1OC(C)C [Example 111, 2-fluoro-4-{5-[4-isopropoxy-3-(methoxymethyl)phenyl]-1,2,4-oxadiazol-3-yl}benzoic acid] |
| 46 nM | COCc1cc(-c2nc(-c3cccc(C(=O)N(C)CC(=O)OC)c3)no2)ccc1-c1ccccc1C [Example 136, Methyl N-(3-{5-[2-(methoxymethyl)-2′-methylbiphenyl-4-yl]-1,2,4-oxadiazol-3-yl}benzoyl)-N-methylglycinate] |
| 9 nM | COCc1cc(-c2nc(-c3ccc(C(=O)NCCC(=O)OC)c(F)c3)no2)ccc1-c1ccccc1C [Example 117, Methyl N-(2-fluoro-4-{5-[2-(methoxymethyl)-2′-methylbiphenyl-4-yl]-1,2,4-oxadiazol-3-yl}benzoyl)-beta-alaninate] |
| 8.6 nM | COCc1cc(-c2nc(-c3cccc(C(=O)NCC(=O)OC)c3)no2)ccc1-c1ccccc1C [Example 130, Methyl N-(3-{5-[2-(methoxymethyl)-2′-methylbiphenyl-4-yl]-1,2,4-oxadiazol-3-yl}benzoyl)glycinate] |
| 2.9 nM | COCc1cc(-c2nc(-c3cccc(COCC(=O)OC)c3)no2)ccc1-c1ccccc1C [Example 159, Methyl [(3-{5-[2-(methoxymethyl)-2′-methylbiphenyl-4-yl]-1,2,4-oxadiazol-3-yl}benzyl)oxy]acetate] |
| 2.5 nM | CCc1ccccc1-c1ccc(-c2nc(-c3ccc(F)c(CN(C)CCC(=O)O)c3)no2)cc1COC [Example 156, N-(5-{5-[2′-ethyl-2-(methoxymethyl)biphenyl-4-yl]-1,2,4-oxadiazol-3-yl}-2-fluorobenzyl)-N-methyl-beta-alanine, Hydrochloride salt] |
| 1.2 nM | COCc1cc(-c2nc(-c3ccc(F)c(CN(C)CCC(=O)O)c3)no2)ccc1-c1ccccc1C [Example 154, N-(2-fluoro-5-{5-[2-(methoxymethyl)-2′-methylbiphenyl-4-yl]-1,2,4-oxadiazol-3-yl}benzyl)-N-methyl-beta-alanine, Hydrochloride salt] |
